Patent publication US7662832B2, “Pyrrolo[2,3-c]pyridine derivatives and processes for the preparation thereof” (priority 2004, dated 2010)
Where a name gives a salt, the structure may show the parent alone.

Target: Proton Pump (H^+/K^+-ATPase) (Sus scrofa, UniProt P19156)
Assay: Inhibitory effects on proton pump (H^+/K^+-ATPase) activity
Format: biochemical
Conditions: hog gastric vesicles; K^+ stimulated H^+/K^+-ATPase activity; 30 minutes at 37° C.

Proton Pump (H^+/K^+-ATPase), sequence (P19156 2-1034 limits assumed): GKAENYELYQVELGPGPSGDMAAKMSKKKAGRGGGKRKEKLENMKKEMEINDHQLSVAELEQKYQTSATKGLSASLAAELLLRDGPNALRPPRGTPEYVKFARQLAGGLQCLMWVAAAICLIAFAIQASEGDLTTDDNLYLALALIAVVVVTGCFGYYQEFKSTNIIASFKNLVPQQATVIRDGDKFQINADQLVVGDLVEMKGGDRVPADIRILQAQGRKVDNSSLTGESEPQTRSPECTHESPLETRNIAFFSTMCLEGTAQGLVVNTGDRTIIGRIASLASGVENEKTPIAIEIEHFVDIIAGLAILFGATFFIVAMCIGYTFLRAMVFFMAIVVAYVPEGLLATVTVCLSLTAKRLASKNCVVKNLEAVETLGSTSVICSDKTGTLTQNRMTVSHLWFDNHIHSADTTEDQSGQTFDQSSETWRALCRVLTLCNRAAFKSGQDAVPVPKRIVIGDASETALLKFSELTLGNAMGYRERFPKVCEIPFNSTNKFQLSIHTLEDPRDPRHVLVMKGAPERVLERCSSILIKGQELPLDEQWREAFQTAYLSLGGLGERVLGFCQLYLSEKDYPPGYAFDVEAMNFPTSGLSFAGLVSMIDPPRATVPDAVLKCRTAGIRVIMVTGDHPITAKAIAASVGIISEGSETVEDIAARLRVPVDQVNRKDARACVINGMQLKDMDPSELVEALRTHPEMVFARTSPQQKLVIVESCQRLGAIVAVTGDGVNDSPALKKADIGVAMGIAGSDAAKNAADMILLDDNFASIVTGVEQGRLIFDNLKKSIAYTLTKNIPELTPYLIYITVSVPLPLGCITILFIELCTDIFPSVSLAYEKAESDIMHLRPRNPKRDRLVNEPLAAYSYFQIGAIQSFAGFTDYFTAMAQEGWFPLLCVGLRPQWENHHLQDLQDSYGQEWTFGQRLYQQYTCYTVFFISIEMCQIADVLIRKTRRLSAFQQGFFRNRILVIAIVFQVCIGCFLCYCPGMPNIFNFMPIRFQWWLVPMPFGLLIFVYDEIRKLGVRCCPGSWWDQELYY
Proton Pump (H^+/K^+-ATPase), sequence (P18434 whole entry partner): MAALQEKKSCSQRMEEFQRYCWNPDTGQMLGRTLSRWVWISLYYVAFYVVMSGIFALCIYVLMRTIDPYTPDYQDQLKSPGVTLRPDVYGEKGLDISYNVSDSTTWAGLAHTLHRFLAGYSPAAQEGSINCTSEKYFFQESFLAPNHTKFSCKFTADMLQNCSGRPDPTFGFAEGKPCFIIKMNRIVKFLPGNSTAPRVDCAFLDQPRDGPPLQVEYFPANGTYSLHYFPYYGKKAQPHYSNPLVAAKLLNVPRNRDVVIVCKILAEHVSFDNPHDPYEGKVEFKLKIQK

Question: How did the IC50 turn out when `Cc1c(C)n(Cc2ccccc2)c2c(N3CCc4ccccc4C3)nc(C(=O)N3CCNCC3)cc12` [Example 812, [1-benzyl-7-(3,4-dihydro-1H-isoquinolin-2-yl)-2,3-dimethyl-1H-pyrrolo[2,3-c]pyridin-5-yl]-(piperazin-1-yl)-methanone hydrochloride] was run?
Answer: 21 nM

Question: With `C=CCn1c(C)c(C)c2cc(C(=O)NCC(F)(F)F)nc(N3CCc4ccccc4C3)c21` [Example 762, 1-allyl-7-(3,4-dihydro-1H-isoquinolin-2-yl)-2,3-dimethyl-N-(2,2,2-trifluoroethyl)-1H-pyrrolo[2,3-c]pyridin-5-carboxamide] as the molecule, how does the IC50 read?
Answer: 350 nM

Question: How did the IC50 turn out when `Cc1c(C)n(Cc2ccccc2)c2c(-c3ccc(Cl)cc3)nccc12` [Example 301, 1-benzyl-7-(4-chlorophenyl)-2,3-dimethyl-1H-pyrrolo[2,3-c]pyridine hydrochloride] was run?
Answer: 384 nM

Question: Which IC50 does the source give for `COc1cccc(Cn2c(C)c(C)c3ccnc(COc4ccc(C)cc4C)c32)c1` [Example 68, 1-(3-methoxybenzyl)-2,3-dimethyl-7-(2,4-dimethylphenoxymethyl)-1H-pyrrolo[2,3-c]pyridine hydrochloride] here?
Answer: 212 nM

Question: How did the IC50 turn out when `COCCn1c(C)c(C)c2cc(C(=O)n3ccnc3)nc(N3CCc4ccccc4C3)c21` [Example 842, [7-(3,4-dihydro-1H-isoquinolin-2-yl)-1-(2-methoxyethyl)-2,3-dimethyl-1H-pyrrolo[2,3-c]pyridin-5-yl]-(imidazol-1-yl)-methanone hydrochloride] was run?
Answer: 480 nM

Question: Which IC50 does the source give for `CCC1c2ccccc2CCN1c1nccc2c(C)c(C)n(Cc3ccc(OC)cc3)c12` (stereo not shown) [Example 583, 1-ethyl-2-[1-(4-methoxybenzyl)-2,3-dimethyl-1H-pyrrolo[2,3-c]pyridin-7-yl]-1,2,3,4-tetrahydroisoquinoline hydrochloride] here?
Answer: 380 nM

Question: `COc1cccc(Cn2c(C)c(C)c3ccnc(COc4ccc(Cl)cc4)c32)c1` [Example 45, 7-(4-chlorophenoxymethyl)-1-(3-methoxybenzyl)-2,3-dimethyl-1H-pyrrolo[2,3-c]pyridine hydrochloride] was tested. Which IC50 did it give?
Answer: 71 nM

Question: For `Cc1ccc(Cn2c(C)c(C)c3ccnc(NCc4ccc(F)cc4)c32)cc1` [Example 220, 7-(4-fluorobenzylamino)-2,3-dimethyl-1-(4-methylbenzyl)-1H-pyrrolo[2,3-c]pyridine hydrochloride], which IC50 is on record?
Answer: 430 nM

Question: With `Cc1c(C)n(Cc2cccc(F)c2)c2c(N3CCc4ccccc4C3)nc(CC#N)cc12` [Example 884, [7-(3,4-dihydro-1H-isoquinolin-2-yl)-1-(3-fluorobenzyl)-2,3-dimethyl-1H-pyrrolo[2,3-c]pyridin-5-yl]-acetonitrile hydrochloride] as the molecule, how does the IC50 read?
Answer: 216 nM

Question: How did the IC50 turn out when `Cc1c(C)n(Cc2cccc(Cl)c2)c2c(N3CCc4ccccc4C3)nc(CN3CCN(C)CC3)cc12` [Example 875, 2-[1-(3-chlorobenzyl)-2,3-dimethyl-5-(4-methylpiperazin-1-ylmethyl)-1H-pyrrolo[2,3-c]pyridin-7-yl]-1,2,3,4-tetrahydroisoquinoline hydrochloride] was run?
Answer: 258 nM

Question: How did the IC50 turn out when `Cc1c(C)n(Cc2cccc(Cl)c2)c2c(N3CCc4ccccc4C3)nc(C(=O)N3CCCCC3)cc12` [Example 799, [1-(3-chlorobenzyl)-7-(3,4-dihydro-1H-isoquinolin-2-yl)-2,3-dimethyl-1H-pyrrolo[2,3-c]pyridin-5-yl]-(piperidin-1-yl)-methanone hydrochloride] was run?
Answer: 164 nM

Question: `CCC1c2ccccc2CCN1c1nccc2c(C)c(C)n(CCOC)c12` (stereo not shown) [Example 585, 1-ethyl-2-[1-(2-methoxyethyl)-2,3-dimethyl-1H-pyrrolo[2,3-c]pyridin-7-yl]-1,2,3,4-tetrahydroisoquinoline hydrochloride] was tested. Which IC50 did it give?
Answer: 370 nM

Question: Which IC50 does the source give for `C#CCn1c(C)c(C)c2ccnc(N3CCc4ccccc4C3)c21` [Example 506, 1-(prop-2-ynyl)-7-(1,2,3,4-tetrahydroisoquinolin-2-yl)-2,3-dimethyl-1H-pyrrolo[2,3-c]pyridine hydrochloride] here?
Answer: 69 nM
